The conditions of this data set: 298.15 K, 101.33 kPa, Liquid; for speed of sound: Sing-around technique in a fixed-path interferometer; for mass density: Vibrating tube method.

± gives the expanded uncertainty stated by the source.

For `Cc1ccccc1N` [2-methylaniline], the speed of sound is listed as 1602.6 ± 2.4 m/s and the mass density is 994.351 ± 0.24 kg/m3.
The corresponding values for `Cc1ccccn1` [2-methylpyridine] are 1380.1 ± 2.9 m/s and 939.802 ± 0.77 kg/m3.
For `Cc1cccnc1` [3-methylpyridine] the same measures were 1424 ± 2.3 m/s and 952.002 ± 0.24 kg/m3.
The corresponding values for `Cc1ccncc1` [4-methylpyridine] are 1431.5 ± 2.3 m/s and 950.179 ± 0.24 kg/m3.
On to `c1ccncc1` [pyridine], for which the speed of sound was 1417.8 ± 2.3 m/s and the mass density came to 978.249 ± 0.24 kg/m3.

Source of the values: the NIST ThermoML archive (doi:10.1016/j.jct.2010.12.028).
